How the values were obtained:
[1] = test system: 83P2H3/hCaT-expressing PC3 cell; assay: ERK phosphorylation in response to ion channel activators (anti-phospho-ERK Western blotting); assay type: cell-based, human; conditions: hCaT-expressing PC3 cells grown in 0.1% FBS, treated for 5 min
Excerpt: (§1) FIG. 22. Mediation of ERK phosphorylation by hCaT via a variety of ion channel activators. Control and 83P2H3/hCaT-expressing PC3 cell were compared for their ability to induce ERK phosphorylation in response to ion channel activators known to regulate intracellular calcium levels in several cell types. […] Whole cell lysates were separated by SDS-PAGE and analyzed by Western blotting using an anti-phospho-ERK monoclonal antibody (New England Nuclear, Bedford, Mass.). Anti-ERK overlays were used to evaluate protein loading.
(§2) Many mammalian proteins have been reported to interact with signaling molecules and to participate in regulating signaling pathways (J Neurochem. 2001; 76:217-223). Using immunoprecipitation and Western blotting techniques, proteins are identified that associate with 83P2H3 and mediate signaling events. Several pathways known to play a role in cancer biology can be regulated by several of these genes, including phospholipid pathways such as P13K, AKT, etc, adhesion and migration pathways, including FAK, Rho, Rac-1, etc, as well as mitogenic/survival cascades such as ERK, p38, etc (Cell Growth Differ. 2000,11:279; J Biol Chem. 1999, 274:801; Oncogene 2000, 19:3003, J. Cell Biol. 1997, 138:913.). Using Western blotting techniques, the ability of 83P2H3 to regulate these pathways is examined. Cells expressing 83P2H3 and cells lacking these genes are either left untreated or stimulated with ions, channel activators, or antibodies. Cell lysates are analyzed using anti-phospho-specific antibodies (Cell Signaling, Santa Cruz Biotechnology) in order to detect phosphorylation and regulation of ERK, p38, AKT, P13K, PLC and other signaling molecules.

PC3-neo cells = assay: as above; assay type: cell-based, human; conditions: PC3-neo cells grown in 0.1% FBS, treated for 5 min
Excerpt: as §1, §2

HLA-DR = conditions: cited from earlier work
T helper lymphocytes = conditions: regardless of HLA type; cited from earlier work

Row | Molecule | ERK phosphorylation [1] | ERK phosphorylation (PC3-neo cells) | Binding to HLA-DR alleles (HLA-DR) | Stimulation of the response of T helper lymphocytes (T helper lymphocytes)
1 | CCCCCCCCCCCCCC(=O)O[C@@H]1[C@@H](C)[C@@]2(O)[C@@H](C=C(CO)C[C@]3(O)C(=O)C(C)=C[C@@H]23)[C@@H]2C(C)(C)[C@]12OC(C)=O [PMA] | induced ERK phosphorylation | induced ERK phosphorylation | – | –
2 | C[C@H](CCC(=O)O)C[C@H](C)C[C@H](C)C(=O)/C=C(\O)[C@H](C)C[C@H](C)C/C=C/[C@@H](C)[C@@H](O)[C@@H](C)[C@@H](O)C[C@@H]1CC[C@@](C)([C@H]2CC[C@@](C)([C@@H](C)O)O2)O1 [ionomycin] | induced ERK phosphorylation | – | – | –
3 | LPA | induced ERK phosphorylation | – | – | –
4 | aKXVAAWTLKAAa | – | – | bind to most HLA-DR alleles | stimulate the response of T helper lymphocytes from most individuals
